# Marks after values point to notes of the source that are not given here.
# What was measured:
# [1] = system: human prostate PC3 xenograft tumors; test: Antitumor activity in subcutaneous human prostate PC3 xenograft (tumor size over time); format: in vivo, immunodeficient mice
# Experimental: The dose of paclitaxel was 15 mg/kg and was given twice weekly for three weeks. […] Example 1 further expounds on FIG. 1.
# The relevant tumor model used was human prostate PC3 xenograft implanted subcutaneously in immunodeficient mice. […] The dose of paclitaxel was 15 mg/kg and was given twice weekly for three weeks.
# [2] = system: human prostate PC3 xenograft tumors; test: Non-apoptotic and apoptotic cell counts in histologic sections of residual PC3 tumors; format: in vivo, immunodeficient mice; conditions: mean ± SD
# Experimental: Because a post-treatment residual tumor consisted of apoptotic and non-apoptotic cells, the effects of different treatments on the fractions of non-apoptotic (and therefore not committed to death) and apoptotic (dead or committed) cells were evaluated. Briefly, residual tumors were removed from animals after termination of treatment, and histologic tumor sections were prepared. Tumor sections were examined microscopically under 400× magnification. For each tumor, at least 4 sections were evaluated. Apoptotic cells were identified by their characteristic morphologies, i.e., presence of apoptotic bodies, condensed nuclei and fragmented nuclei.
# clinical = format: in vivo, human
# Text: This method was then verified prospectively in three additional patients (see Example IV).
# However, the CL was lower in females compared to males.
# in vivo = conditions: mouse
# [3] = Phase I trial, toxicity of low dose suramin with paclitaxel and carboplatin; format: in vivo, human
# Text: Fifteen patients, with metastases to pleura, pericardium, adrenals, lymph nodes, liver, bone, and/or brain, were enrolled in the phase I trial. This group includes 4 stage IIIb and 11 stage IV patients. […] All patients were evaluable for pharmacokinetics and toxicity. […] Accordingly, it was not necessary to administer replacement steroid therapy to patients who received low dose suramin. This is contrary to the case where replacement steroid therapy was routinely given to patients who received high dose suramin (Dorr and Von Hoff).
# [4] = Prospective verification of the PBPK-based dosing method, plasma concentrations; format: in vivo, human; conditions: for concentration at 48 h: human, plasma, intravenous
# Experimental: Three additional non-small cell lung cancer patients were treated using the dose calculated by the PBPK-based method.
# [5] = Literature, cited from earlier work
# cell cycle = conditions: constant concentrations of above 50 μM maintained for at least one or two days; cited from earlier work
# [6] = system: acidic and basic fibroblast growth factors (aFGF and bFGF); conditions: tumor cells, aFGF and bFGF induced resistance; cited from earlier work
# [7] = Population-based pharmacokinetic (PBPK) analysis of low dose suramin, NONMEM
# Text: The first step is to define the appropriate error model for the pharmacokinetic parameters of interest. […] Only the covariates whose elimination results in significant deterioration in model performance are included in the final model (referred to as Population Model).
# The PBPK for a one-compartment model depicting plasma concentrations as a function of clearance (CL) and volume of distribution (V) is as follows: • where Cij is the predicted plasma concentration at a particular time time i for a patient j.
# Error functions were used to describe the random deviations between model-predicted and observed data for individual pharmacokinetic parameters. Because the objective was to identify the dose, which can be calculated based on CL and V, the analysis focused on these two parameters. […] CLj=CL^typ*(1+ηCL) Eq. 2 Vj=V^typ*(1+ηV) Eq. 3 where ηCL and ηV are random values normally distributed around a mean of zero with a variance of ω^2.
# Multiple plasma concentration-time data points were used in PBPK analysis. These time points were 18, 24, 48 and 72 hours after the first treatment, 72 hours and immediately prior to next treatment, and 48 and 72 hours after second and subsequent treatments. The relationship between observed plasma concentrations and PBPK-predicted values (residual variability) is depicted by Equation 4. Yij=Cij*(1+ε1ij) Eq. 4 where Yij and Cij are the observed and predicted concentrations of the j^th individual at the i^th sampling time. ε1ij is the residual errors with a mean of zero and a variance of σ^2. The above equations used an error function in the form of (1+error), which represents the proportional error model where the coefficient of variation is constant and independent of the size of the fixed effect parameter. […] Model Building: Identification of Significant Covariates
# The contribution of ten covariates to the inter-individual variability in CL and V was studied. These covariates were age, gender, weight, ideal body weight, height, body surface area (BSA), creatinine concentration, creatinine clearance (CrCL), and serum albumin concentration. Linear regression analysis was used to examine the relationships between covariates and pharmacokinetic parameters in individual patients.
# To determine whether a covariate should be incorporated into the model, the log likelihood ratio test was used and the chi-square χ^2 values were calculated by taking the difference in the objective function values of the models, obtained with or without adding the candidate covariate.
# CL^typ=(θ1*BSA+θ2*CrCL+θ3)*(1−θ4) Eq. 7 V^typ=θ5*BSA^2+θ6 Eq. 8 […]
# To obtain estimates for k^typ, the k values for individual patients were calculated by substituting their corresponding BSA values into Equations 13 and 14.
# [8] = paclitaxel alone 15 mg/kg twice weekly for three weeks
# [9] = high dose suramin regimen 200 mg/kg then 5 x 130 mg/kg over three weeks, combination: plus paclitaxel 15 mg/kg
# [10] = low dose suramin regimen 10 mg/kg twice weekly for three weeks, combination: plus paclitaxel 15 mg/kg
# [11] = Patient 1, cycle 1, BSA 1.45, dose 263 mg
# [12] = Patient 1, cycles 3 to 6, dose 151-156 mg
# [13] = Patient 2, cycle 1, BSA 1.67, dose 210 mg
# [14] = Patient 2, cycles 2 to 6, dose 227-257 mg
# [15] = Patient 3, cycle 1, BSA 1.83, dose 230 mg
# [16] = high dose suramin >2,000 mg per m^2
# [17] = Population Model, first 12 patients
smiles,measurement,setting,value
"CC(=O)O[C@H]1C(=O)[C@@]2(C)[C@H]([C@H](OC(=O)c3ccccc3)[C@]3(O)C[C@H](OC(=O)[C@H](O)[C@@H](NC(=O)c4ccccc4)c4ccccc4)C(C)=C1C3(C)C)[C@]1(OC(C)=O)CO[C@@H]1C[C@@H]2O [Paclitaxel, paclitaxel]",antitumor effect (tumor growth),"[1]; paclitaxel alone 15 mg/kg twice weekly for three weeks, p<0.05 vs control",suppressed tumor growth
same,Number of apoptotic cells in a 400x field,[2]; [8],30 ± 17
same,Number of non-apoptotic cells in a 400x field,[2]; [8],14 ± 10
same,areas-under-plasma concentration-time curves attained in the first 48 hours after drug administration,"clinical; human, in vivo",> 92%
same,concentration at 5 min,in vivo,~7000 ng/mL
same,concentration at 5 h,in vivo,200 ng/mL
same,concentration at 6 h,in vivo,< 100 ng/mL
N.N.O=C([O-])C1(C(=O)[O-])CCC1.[Pt+2] [carboplatin],areas-under-plasma concentration-time curves attained in the first 48 hours after drug administration,clinical; first six patients,> 99%
Cc1ccc(C(=O)Nc2ccc(S(=O)(=O)O)c3cc(S(=O)(=O)O)cc(S(=O)(=O)O)c23)cc1NC(=O)c1cccc(NC(=O)Nc2cccc(C(=O)Nc3cc(C(=O)Nc4ccc(S(=O)(=O)O)c5cc(S(=O)(=O)O)cc(S(=O)(=O)O)c45)ccc3C)c2)c1 [suramin],antitumor effect (tumor growth),"[1]; high dose suramin regimen: loading dose 200 mg/kg, then 5 doses of 130 mg/kg over three weeks, combination: plus paclitaxel 15 mg/kg twice weekly for three weeks",slower tumor growth
same,"tumor size, % of the initial tumor size","[1]; low dose suramin regimen: 10 mg/kg twice weekly for three weeks, combination: plus paclitaxel 15 mg/kg twice weekly for three weeks",about 800%
same,Number of apoptotic cells in a 400x field,[2]; [9],22 ± 9
same,Number of non-apoptotic cells in a 400x field,[2]; [9],19 ± 9
same,Number of apoptotic cells in a 400x field,[2]; [10],21 ± 16
same,Number of non-apoptotic cells in a 400x field,[2]; [10],62 ± 44
same,dose-limiting toxicity,"[3]; low dose suramin with paclitaxel 200 mg/m^2 and carboplatin AUC 6 every three weeks, fifteen patients",No dose-limiting toxicity
same,adrenal insufficiency,[3]; patients receiving the low dose suramin treatment,no adrenal insufficiency
same,half-life,"clinical; both sexes, human, in vivo, Alpha half-life",4.4 h
same,half-life,"clinical; both sexes, human, in vivo, Beta half-life",264 h
same,maximum inter-individual variability of clearance (CL),"clinical; both, human, in vivo",182%
same,inter-individual variability of clearance (CL),"clinical; female, human, in vivo",2%
same,half-life,"clinical; female, human, in vivo, Alpha half-life",4.6 ± 2 h
same,half-life,"clinical; female, human, in vivo, Beta half-life",336 h
same,area under the terminal phase as share of the total area-under-curve,"clinical; human, in vivo",~90%
same,concentration at 48 h,"clinical; human, in vivo",> 10 µM
same,maximum inter-subject variability in the steady state volume of distribution (Vss),"clinical; human, in vivo",153%
same,inter-individual variability of clearance (CL),"clinical; male, human, in vivo",13%
same,half-life,"clinical; male, human, in vivo, Alpha half-life",4.3 ± 0.6 h
same,half-life,"clinical; male, human, in vivo, Beta half-life",240 h
same,"Concentration, Post-paclitaxel",[4]; [11],33.95 µM
same,"Concentration, Pre-dose",[4]; [11],0.00 µM
same,"Concentration, Post-paclitaxel",[4]; [12],21.5 to 26.3 µM
same,"Concentration, Pre-dose",[4]; [12],1.87 to 3.19 µM
same,"Concentration, Post-paclitaxel",[4]; [13],40.39 µM
same,"Concentration, Pre-dose",[4]; [13],0.00 µM
same,"Concentration, Post-paclitaxel",[4]; [14],26.7 to 28.5 µM
same,"Concentration, Pre-dose",[4]; [14],2.65 to 3.81 µM
same,"Concentration, Post-paclitaxel",[4]; [15],36.02 µM
same,"Concentration, Pre-dose",[4]; [15],0.00 µM
same,maximum concentrations after administration of paclitaxel,"[4]; all 13 treatments in three patients, PBPK-calculated dose, two-thirds / one-third split",below 50 μM
same,concentration at 48 h,"[4]; Patient 1, cycle 1, BSA 1.45, dose 263 mg, read-out: Concentration, 48 hours",13.9 µM
same,concentration at 48 h,"[4]; Patient 1, cycles 3 to 6, dose 151-156 mg, read-out: Concentration, 48 hours",10.2 to 11.5 µM
same,concentration at 48 h,"[4]; Patient 2, cycle 1, BSA 1.67, dose 210 mg, read-out: Concentration, 48 hours",15.5 µM
same,concentration at 48 h,"[4]; Patient 2, cycles 2 to 6, dose 227-257 mg, read-out: Concentration, 48 hours",12.9 to 15.6 µM
same,concentration at 48 h,"[4]; Patient 3, cycle 1, BSA 1.83, dose 230 mg, read-out: Concentration, 48 hours",19.4 µM
same,concentration at 48 h,"[4]; all 13 treatments in three patients, PBPK-calculated dose, two-thirds / one-third split, read-out: 48-hour plasma concentrations",> 10 µM
same,Alpha half-life,[5]; [16],5.5 ± 1.7 h
same,Beta half-life,[5]; [16],98.4 ± 52.8 h
same,Gamma half-life,[5]; [16],1870 ± 1100 h
same,Total body clearance,[5]; [16],0.01 ± 0.004 l/hr/m^2
same,Cumulative AUC,"[5]; high dose suramin, total dose >2,000 mg per m^2 per 3-week interval, calculated as 200 μg/ml x 3 weeks from the reference",101* mg-hr/ml
same,effect on cell cycle,cell cycle,induce cell cycle arrest
same,concentrations of suramin that overcome FGF-mediated resistance to chemotherapy,[6],less than 50 μM
same,"k^typ (elimination rate constant), Estimate",[7]; Female,0.0022 h⁻¹
same,"k^typ (elimination rate constant), Estimate",[7]; Male,0.0026 h⁻¹
same,"θ1 (effect of BSA on CL^typ), Estimate",[7]; [17],26.2 mL/h * m^2
same,"θ5 (effect of BSA^2 on V^typ), Estimate",[7]; [17],5.13 L/m^4
